Assay results reported in the CheMixHub viscosity set.
± gives the uncertainty stated by the source.

Assay: xn = mol fraction of the nth substance listed

CC#N + CCCO
viscosity [mPa·s]
Settings	293.15 K	298.15 K	303.15 K	308.15 K	313.15 K	323.15 K
101 kPa, x1 = 0.0674	–	1.557 ± 0.02	1.267 ± 0.016	1.035 ± 0.013	–	–
101 kPa, x1 = 0.1534	–	1.243 ± 0.015	1.027 ± 0.013	0.845 ± 0.01	–	–
101 kPa, x1 = 0.2933	–	0.903 ± 0.011	0.761 ± 0.009	0.645 ± 0.008	–	–
101 kPa, x1 = 0.3889	–	0.738 ± 0.009	0.631 ± 0.007	0.54 ± 0.006	–	–
101 kPa, x1 = 0.4881	–	0.622 ± 0.007	0.539 ± 0.006	0.469 ± 0.006	–	–
101 kPa, x1 = 0.5995	–	0.519 ± 0.006	0.459 ± 0.005	0.407 ± 0.005	–	–
101 kPa, x1 = 0.703	–	0.438 ± 0.005	0.39 ± 0.005	0.351 ± 0.004	–	–
101 kPa, x1 = 0.7951	–	0.393 ± 0.005	0.354 ± 0.004	0.321 ± 0.004	–	–
101 kPa, x1 = 0.909	–	0.361 ± 0.004	0.329 ± 0.004	0.303 ± 0.004	–	–
101.3 kPa, x1 = 0.1388	–	1.295 ± 0.031	1.166 ± 0.028	1.053 ± 0.026	0.983 ± 0.024	–
101.3 kPa, x1 = 0.2787	–	0.922 ± 0.023	0.842 ± 0.021	0.769 ± 0.02	0.706 ± 0.018	–
101.3 kPa, x1 = 0.3856	–	0.747 ± 0.019	0.695 ± 0.018	0.634 ± 0.017	–	–
101.3 kPa, x1 = 0.4939	–	0.615 ± 0.016	0.574 ± 0.016	0.53 ± 0.015	–	–
101.3 kPa, x1 = 0.5945	–	0.522 ± 0.014	0.498 ± 0.014	0.465 ± 0.013	–	–
101.3 kPa, x1 = 0.6887	–	0.463 ± 0.013	0.436 ± 0.013	0.413 ± 0.012	–	–
101.3 kPa, x1 = 0.7735	–	0.421 ± 0.012	0.399 ± 0.012	0.38 ± 0.011	–	–
101.3 kPa, x1 = 0.8539	–	0.391 ± 0.012	0.374 ± 0.011	0.355 ± 0.011	–	–
101.3 kPa, x1 = 0.9294	–	0.365 ± 0.011	0.352 ± 0.011	0.334 ± 0.01	–	–
101.32 kPa, x1 = 0.0214	2.052 ± 0.016	–	1.623 ± 0.013	–	1.298 ± 0.011	1.052 ± 0.009
101.32 kPa, x1 = 0.0926	1.636 ± 0.013	–	1.329 ± 0.011	–	1.089 ± 0.009	0.8994 ± 0.0076
101.32 kPa, x1 = 0.131	1.467 ± 0.012	–	1.195 ± 0.01	–	0.9876 ± 0.0082	0.8269 ± 0.0071
101.32 kPa, x1 = 0.2287	1.114 ± 0.009	–	0.9375 ± 0.0078	–	0.7852 ± 0.0067	0.665 ± 0.0058
101.32 kPa, x1 = 0.3661	0.8314 ± 0.007	–	0.7 ± 0.0061	–	0.5983 ± 0.0053	0.5179 ± 0.0047
101.32 kPa, x1 = 0.4647	0.6986 ± 0.006	–	0.5975 ± 0.0053	–	0.5164 ± 0.0047	0.451 ± 0.0042
101.32 kPa, x1 = 0.5532	0.5951 ± 0.0053	–	0.5163 ± 0.0047	–	0.4519 ± 0.0042	0.3984 ± 0.0038
101.32 kPa, x1 = 0.6088	0.5441 ± 0.0049	–	0.4725 ± 0.0044	–	0.4163 ± 0.004	0.3701 ± 0.0036
101.32 kPa, x1 = 0.7151	0.4665 ± 0.0043	–	0.4106 ± 0.0039	–	0.3663 ± 0.0036	0.3284 ± 0.0033
101.32 kPa, x1 = 0.8071	0.4122 ± 0.0039	–	0.3683 ± 0.0036	–	0.3317 ± 0.0033	0.3003 ± 0.0031
101.32 kPa, x1 = 0.8778	0.3835 ± 0.0037	–	0.345 ± 0.0034	–	0.3126 ± 0.0032	0.2849 ± 0.003
